Common to all, as to assay type: cell-based
Assay [1] deals with isogenic LN229 gliobastoma cells. As to the kind of experiment: Anti-cancer assay against isogenic LN229 cell line set, maximum 200 μM (Example 46). The following applies: concentration up to 200 μM. The protocol:
Isogenic LN229 gliobastoma cells were maintained in Dulbecco's Modified Eagle Medium (DMEM) supplemented with 10% fetal bovine serum, 1% Penicillin/Streptomycin, and 0.1% Fungin. DAY 0: Cells were plated into sterile 96-well plates (Corning Costar 96-well) at a concentration of 500 cells/well using a Multichannel pipettor. Then, assay plates were incubated overnight in a 37° C. 5% CO2 incubator. DAY 1: Compounds were prepared as 50 mM stocks in dimethyl sulfoxide (DMSO) and stored protected from light at room temperature (RT) until use. Prior to compound addition, a two-fold serial dilution of compound stock solutions was performed in DMSO from 30 mM to 0.117 mM in a 96-well Master plate. Vehicle control wells contained DMSO. 97 μL of media was added to each well of a new 96-well plate (Daughter plate) and 3 μL of drug solution from Master plate was added to corresponding wells in the Daughter plate resulting in a 3× plate. Three replicate dilution curves of each compound were run on each assay plate. […]
Assay plates were incubated for 120 hours at 37° C. in a humidified 5% CO2 incubator. DAY 5: Following incubation, cells were fixed with 4% paraformaldehyde and stained with Hoechst dye for nuclei visualization. […] Images were acquired on a BioTek Cytation 5 Cell Imaging Multimode Reader and quantified using Cell Profiler image analysis software. […]

Assay [2] concerns LN229 gliobastoma cells MGMT−/MMR−. As to the kind of experiment: Anti-cancer assay, isogenic LN229 cells, nuclei count (Examples 43, 46). The conditions noted are these: Homo sapiens, read-out: MGMT− MMR− Activity. The text has this: (§1) Cytotoxicity of the compounds may be measured in short-term cell viability assays against four isogenic LN229 glioblastoma cell lines engineered to be proficient or deficient in MGMT and/or MMR activity by using short hairpin RNAs (shRNAs) targeting MSH2. This approach allows for determination of the relationship between MGMT status, MMR status, and compound activity. LN229 cells are maintained in Dulbecco's Modified Eagle Medium (DMEM) supplemented with 10% fetal bovine serum, 1% Penicillin/Streptomycin, and 0.1% Fungin. DAY 0: Cells are plated into sterile 96-well plates (Corning Costar 96-well) at a concentration of 500 cells/well using a Multichannel pipettor. Then, assay plates are incubated overnight in a 37° C. 5% CO2 incubator. DAY 1: Compounds are prepared as 50 mM stocks in dimethyl sulfoxide (DMSO) and stored protected from light at room temperature (RT) until use. Prior to compound addition, a two-fold serial dilution of compound stock solutions is performed in DMSO from 30 mM to 0.117 mM in a 96-well Master plate. Vehicle control wells contain DMSO. 97 μL of media is added to each well of a new 96-well plate (Daughter plate) and 3 μL of drug solution from Master plate is added to corresponding wells in the Daughter plate resulting in a 3× plate. Three replicate dilution curves of each compound are run on each assay plate. The final concentration of compounds ranges from 300 μM to 1.171 μM (9-point, 2-fold dilution dose response curve), and the final DMSO concentration is 1%.
(§2) Assay plates are incubated for 120 hours at 37° C. in a humidified 5% CO2 incubator. DAY 5: Following incubation, cells are fixed with 4% paraformaldehyde and stained with Hoechst dye for nuclei visualization. Fixation, staining and washing is performed by using a Thermo Scientific Multidrop Combi. Images are acquired on a BioTek Cytation 5 Cell Imaging Multimode Reader and quantified using Cell Profiler image analysis software. Raw cell count data for test compounds are normalized to percent viability relative to the DMSO vehicle control.
(§3) Isogenic LN229 gliobastoma cells were maintained in Dulbecco's Modified Eagle Medium (DMEM) supplemented with 10% fetal bovine serum, 1% Penicillin/Streptomycin, and 0.1% Fungin. DAY 0: Cells were plated into sterile 96-well plates (Corning Costar 96-well) at a concentration of 500 cells/well using a Multichannel pipettor. Then, assay plates were incubated overnight in a 37° C. 5% CO2 incubator. DAY 1: Compounds were prepared as 50 mM stocks in dimethyl sulfoxide (DMSO) and stored protected from light at room temperature (RT) until use. Prior to compound addition, a two-fold serial dilution of compound stock solutions was performed in DMSO from 30 mM to 0.117 mM in a 96-well Master plate. Vehicle control wells contained DMSO. 97 μL of media was added to each well of a new 96-well plate (Daughter plate) and 3 μL of drug solution from Master plate was added to corresponding wells in the Daughter plate resulting in a 3× plate. Three replicate dilution curves of each compound were run on each assay plate. The final concentration of compounds ranged from 300 μM to 1.171 μM (9-point, 2-fold dilution dose response curve), and the final DMSO concentration was 1%.
(§4) Assay plates were incubated for 120 hours at 37° C. in a humidified 5% CO2 incubator. DAY 5: Following incubation, cells were fixed with 4% paraformaldehyde and stained with Hoechst dye for nuclei visualization. Fixation, staining and washing was performed by using a Thermo Scientific Multidrop Combi. Images were acquired on a BioTek Cytation 5 Cell Imaging Multimode Reader and quantified using Cell Profiler image analysis software. Raw cell count data for test compounds were normalized to percent viability relative to the DMSO vehicle control. […]

The subject of assay [3] is LN229 gliobastoma cells MGMT−/MMR+. Described as above. The conditions noted are these: Homo sapiens, read-out: MGMT− MMR+ Activity.
Text: as §1, §2, §3, §4

The subject of assay [4] is LN229 gliobastoma cells MGMT+/MMR−. The assay is described as follows: Anti-cancer assay, isogenic LN229 cells, nuclei count (Example 43). The following applies: Homo sapiens, read-out: MGMT+ MMR− Activity.
Text: as §1, §2, §3
(§5) Assay plates were incubated for 120 hours at 37° C. in a humidified 5% CO2 incubator. DAY 5: Following incubation, cells were fixed with 4% paraformaldehyde and stained with Hoechst dye for nuclei visualization. Fixation, staining and washing was performed by using a Thermo Scientific Multidrop Combi. Images were acquired on a BioTek Cytation 5 Cell Imaging Multimode Reader and quantified using Cell Profiler image analysis software. Raw cell count data for test compounds were normalized to percent viability relative to the DMSO vehicle control.

In assay [5] the test system is LN229 gliobastoma cells MGMT+/MMR+. Described as above. The conditions noted are these: Homo sapiens, read-out: MGMT+ MMR+ Activity.
Text: as §1, §2, §3, §5

Where [6] appears, read: LN-229, LN229 MGMT−/MMR−, 120 hours.
Where [7] appears, read: LN-229, LN229 MGMT−/MMR+, 120 hours.
[8] abbreviates: LN-229, LN229 MGMT+/MMR−, 120 hours.
The mark [9] stands for this setting: LN-229, LN229 MGMT+/MMR+, 120 hours.

Like-named read-outs stand apart in the source and are kept apart here.

For the compound `COCCn1nnc2c(C(N)=O)ncn2c1=O` [Compound A2], the “anti-cancer activity against LN229 isogenic cell line set” value in assay [1] was “no detectable anti-cancer activity”.

Regarding `NC(=O)c1ncn2c(=O)n(CCOC(F)F)nnc12` [Compound I-44], the IC50 in assay [2] (setting [6]), in assay [3] (setting [7]), in assay [4] (setting [8]) and in assay [5] (setting [9]) was > 100 µM in each case.

Take `O=c1n(CCOC(F)(F)F)nnc2c(-c3nc4ccccc4[nH]3)ncn12` [II-1, 8-(1H-Benzo[d]imidazol-2-yl)-3-(2-(trifluoromethoxy)ethyl)imidazo[5,1-d][1,2,3,5]tetrazin-4(3H)-one]: the IC50 in assay [2] (setting [6]) is > 100 µM; in assay [3] (setting [7]), < 20 µM; in assay [4] (setting [8]), 50 to 100 µM; in assay [5] (setting [9]), < 20 µM.

For the compound `O=c1n(CCOC(F)(F)F)nnc2c(-c3ncc(-c4ccccc4)o3)ncn12` [II-2, 8-(5-Phenyloxazol-2-yl)-3-(2-(trifluoromethoxy)ethyl)imidazo[5,1-d][1,2,3,5]tetrazin-4(3H)-one], the IC50 in assay [2] (setting [6]) was 20 to 50 µM; in assay [3] (setting [7]), 50 to 100 µM; in assay [4] (setting [8]) it was 20 to 50 µM; in assay [5] (setting [9]), < 20 µM.

For the compound `Cc1cnc(-c2ncn3c(=O)n(CCOC(F)(F)F)nnc23)o1` [II-3, 8-(5-Methyloxazol-2-yl)-3-(2-(trifluoromethoxy)ethyl) imidazo[5,1-d][1,2,3,5]tetrazin-4(3H)-one], the IC50 in assay [2] (setting [6]), in assay [3] (setting [7]), in assay [4] (setting [8]) and in assay [5] (setting [9]) was 20 to 50 µM throughout.

Take `O=c1n(CCOC(F)(F)F)nnc2c(-c3nc4ccccc4o3)ncn12` [II-4, 8-(benzo[d]oxazol-2-yl)-3-(2-(trifluoromethoxy)ethyl) imidazo[5,1-d][1,2,3,5]tetrazin-4(3H)-one]: the IC50 in assay [2] (setting [6]) is < 20 µM; in assay [3] (setting [7]), 20 to 50 µM; in assay [4] (setting [8]), < 20 µM; in assay [5] (setting [9]), < 20 µM.

With `O=c1n(CCOC(F)(F)F)nnc2c(-c3ccccc3)ncn12` [II-5, 8-Phenyl-3-(2-(trifluoromethoxy)ethyl)imidazo[5,1-d][1,2,3,5]tetrazin-4(3H)-one], the IC50 was 20 to 50 µM in assay [2] (setting [6]), < 20 µM in assay [3] (setting [7]), < 20 µM in assay [4] (setting [8]) and < 20 µM in assay [5] (setting [9]).

In the case of `Cc1cnc(-c2ncn3c(=O)n(CCOC(F)(F)F)nnc23)s1` [II-6, 8-(5-Methylthiazol-2-yl)-3-(2-(trifluoromethoxy)ethyl)imidazo[5,1-d][1,2,3,5]tetrazin-4(3H)-one], the IC50 was < 20 µM in assay [2] (setting [6]), 20 to 50 µM in assay [3] (setting [7]), < 20 µM in assay [4] (setting [8]) and < 20 µM in assay [5] (setting [9]).

As to `O=NN(CCOC(F)(F)F)C(=O)NC1CCCCC1` [IV-1, 3-Cyclohexyl-1-nitroso-1-(2-(trifluoromethoxy)ethyl)urea], the IC50 lay in the range of 20 to 50 µM in assay [2] (LN-229, 120 h); 20 to 50 µM in assay [3] (LN-229, 120 h); 20 to 50 µM in assay [4] (LN-229, 120 h); 20 to 50 µM in assay [5] (LN-229, 120 h).

For `O=NN(CCOC(F)(F)F)C(=O)NCCOC(F)(F)F` [IV-2, 1-Nitroso-1,3-bis(2-(trifluoromethoxy)ethyl)urea], the IC50 in assay [2] (LN-229, 120 h) was 20 to 50 µM; in assay [3] (LN-229, 120 h), 50 to 100 µM; in assay [4] (LN-229, 120 h), > 100 µM; in assay [5] (LN-229, 120 h), > 100 µM.

These data come from patent US20250066371A1, “FLUOROALKOXYALKYLENE-DIHYDROIMIDAZO[5,1-D]TETRAZINONE COMPOUNDS AND RELATED COMPOUNDS AND THEIR USE IN TREATING MEDICAL CONDITIONS” (priority 2023, published 2025).
